Measurements from patent US9199962B2, “Substituted azaheterocycles for the treatment of cancer” (Merck Patent GmbH, priority 2011, dated 2015).
Where two headings read alike, the source gives them in different places.

How the values were obtained:
[1] = biological target: T1, focal adhesion kinase (FAK) autophosphorylation at tyrosine 397 in HT29 cells (Homo sapiens, UniProt Q05397); assay: Cellular testing of FAK inhibitors: FAK autophosphorylation at tyrosine 397 in HT29 cells (Luminex-based assay); assay type: cell-based; conditions: 30 min serum-free, read-out: HT-29 IC50
T1 construct: endogenous in cells; host or cells: HT29
Protocol: 2. Assay Principle for Celluar Testing of FAK Inhibitors
Cellular activity of focal adhesion kinase (FAK) is determined by the degree of FAK autophosphorylation at tyrosine 397 using a Luminex-based assay. HT29 cells are plated with 30,000 cells per well of a 96-well plate in 100 μl medium (90% DMEM/10% FCS). At the following day, test compounds are added in a serial dilution under serum-free conditions for 30 min. Then, cells were lysed with 90 μl lysis buffer (20 mM Tris/HCl pH 8.0, 150 mM NaCl, 1% NP40, 10% Glycerol, 1% Phosphatase-Inhibitor II, 20 mM […]-Glycerolphosphat, 0.1% Protease-Inhibitor Cocktail III, 0.01% Benzonase) and lysates were cleared by centrifugation through a 96-well filter plate (0.65 μm). Samples were incubated with Luminex-beads which were coupled with an anti-total FAK antibody overnight at 4° C. with under gentle agitation. For detection of phospho-Y397-FAK a phosphospecific antibody and a species specific PE-labeled secondary antibody are added. The amount of phospho-Y397-FAK is determined in a Luminex100 machine measuring 100 events per well within 60 seconds.
Counts from samples treated with a FAK reference inhibitor are subtracted as pharmacological blank. Counts from samples treated with test compounds are calculated as percent of control from solvent treated (0.3% DMSO) samples. IC50 values were determined using AssayExplorer software.

[2] = biological target: T2, GST-FAK (N-terminal GST fusion with truncated human FAK (376-1052 (end) amino acids)) (Homo sapiens, UniProt Q05397); assay: Biochemical enzyme assay for FAK activity (Caliper LC3000 mobility shift); conditions: 100 uM ATP, read-out: FAK IC50
T2 construct: truncated human FAK (376-1052 (end) amino acids)
In short: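 Inhibitor dose series in DMSO were incubated 90 min at 25 °C with truncated GST-tagged human FAK (0.067 ng/µl) and FITC-labelled peptide substrate (1 µM), with ATP at 100 µM and FERM peptide at 1 mM (pH 7.5 HEPES). After EDTA quench, phosphorylated and unphosphorylated peptides were resolved electrophoretically. Percent conversion was fitted for IC50.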

T2 sequence (Q05397 376-1052): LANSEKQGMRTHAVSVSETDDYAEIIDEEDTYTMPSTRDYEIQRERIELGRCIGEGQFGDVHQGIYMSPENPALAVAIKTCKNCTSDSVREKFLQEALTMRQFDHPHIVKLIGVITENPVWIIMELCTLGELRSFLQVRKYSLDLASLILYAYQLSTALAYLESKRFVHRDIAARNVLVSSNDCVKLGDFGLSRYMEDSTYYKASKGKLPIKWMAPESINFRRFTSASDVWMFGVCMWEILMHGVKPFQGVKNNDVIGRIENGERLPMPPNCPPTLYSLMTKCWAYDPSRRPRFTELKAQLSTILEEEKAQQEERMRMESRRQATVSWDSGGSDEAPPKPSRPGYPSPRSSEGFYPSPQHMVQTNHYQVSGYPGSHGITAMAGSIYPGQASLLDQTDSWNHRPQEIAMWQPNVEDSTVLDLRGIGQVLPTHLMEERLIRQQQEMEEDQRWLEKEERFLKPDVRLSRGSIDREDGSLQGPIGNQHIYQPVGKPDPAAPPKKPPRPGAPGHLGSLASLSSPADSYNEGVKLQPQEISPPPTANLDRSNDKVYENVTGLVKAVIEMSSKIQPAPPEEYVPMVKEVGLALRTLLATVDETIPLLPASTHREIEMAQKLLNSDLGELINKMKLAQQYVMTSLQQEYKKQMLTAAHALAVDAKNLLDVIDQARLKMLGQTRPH
T1 sequence (Q05397 whole entry): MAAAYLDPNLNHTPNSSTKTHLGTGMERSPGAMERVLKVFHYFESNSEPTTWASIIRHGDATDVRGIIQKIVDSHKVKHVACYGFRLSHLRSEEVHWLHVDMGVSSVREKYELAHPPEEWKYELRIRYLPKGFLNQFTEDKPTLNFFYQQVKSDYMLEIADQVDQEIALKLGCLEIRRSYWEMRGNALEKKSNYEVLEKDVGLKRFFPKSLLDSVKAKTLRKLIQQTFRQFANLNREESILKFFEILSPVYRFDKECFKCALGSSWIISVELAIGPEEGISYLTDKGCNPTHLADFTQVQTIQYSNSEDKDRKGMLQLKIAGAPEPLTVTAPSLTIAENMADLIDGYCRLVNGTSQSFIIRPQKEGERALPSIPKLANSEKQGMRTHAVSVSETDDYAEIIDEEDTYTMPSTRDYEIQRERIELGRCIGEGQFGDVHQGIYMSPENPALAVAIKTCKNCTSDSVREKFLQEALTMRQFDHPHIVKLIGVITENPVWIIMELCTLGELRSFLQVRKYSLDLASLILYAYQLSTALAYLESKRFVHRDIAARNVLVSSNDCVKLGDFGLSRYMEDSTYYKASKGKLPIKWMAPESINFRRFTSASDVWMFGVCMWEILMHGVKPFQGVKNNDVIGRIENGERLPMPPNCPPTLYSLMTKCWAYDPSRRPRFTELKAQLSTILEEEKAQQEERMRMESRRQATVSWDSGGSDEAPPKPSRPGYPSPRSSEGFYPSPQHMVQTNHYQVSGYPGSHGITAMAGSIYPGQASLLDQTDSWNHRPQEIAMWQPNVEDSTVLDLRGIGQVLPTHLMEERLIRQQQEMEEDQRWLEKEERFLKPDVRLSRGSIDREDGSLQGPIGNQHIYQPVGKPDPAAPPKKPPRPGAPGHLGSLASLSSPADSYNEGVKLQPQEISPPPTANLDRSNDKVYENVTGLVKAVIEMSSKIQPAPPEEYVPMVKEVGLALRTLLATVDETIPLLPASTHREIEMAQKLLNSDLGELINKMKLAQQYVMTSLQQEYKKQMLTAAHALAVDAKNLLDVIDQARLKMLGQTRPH

IC50 ([1]; Table 2, phospho-Y397-FAK)	IC50 ([2]; Table 2)	IC50 ([1]; Table 3, phospho-Y397-FAK)	IC50 ([2]; Table 3)	SMILES
1 to 10 µM	0.1 to 1 µM	–	–	CCN(CC)C(=O)CCNc1cc(NCc2ccc(F)cc2F)nc(-c2cncc(C(F)(F)F)c2)n1 [Compound 62, 3-[6-(2,4-Difluoro-benzylamino)-2-(5-trifluoromethyl-pyridin-3-yl)-pyrimidin-4-ylamino]-N,N-diethyl-propionamide]
1 to 10 µM	0.1 to 1 µM	–	–	O=C(CCNc1cc(NCc2ccc(F)cc2F)nc(-c2cncc(C(F)(F)F)c2)n1)N1CCOCC1 [Compound 63, 3-[6-(2,4-Difluoro-benzylamino)-2-(5-trifluoromethyl-pyridin-3-yl)-pyrimidin-4-ylamino]-1-morpholin-4-yl-propan-1-one]
1 to 10 µM	0.1 to 1 µM	–	–	CN1CCN(C(=O)CCNc2cc(NCc3ccc(F)cc3F)nc(-c3cncc(C(F)(F)F)c3)n2)CC1 [Compound 64, 3-[6-(2,4-Difluoro-benzylamino)-2-(5-trifluoromethyl-pyridin-3-yl)-pyrimidin-4-ylamino]-1-(4-methyl-piperazin-1-yl)-propan-1-one]
> 10 µM	0.1 to 1 µM	–	–	CN(C)CCCCNc1cc(NCc2ccc(F)cc2F)nc(-c2cncc(C(F)(F)F)c2)n1 [Compound 65, N-(2,4-Difluoro-benzyl)-N′-(4-dimethylamino-butyl)-2-(5-trifluoromethyl-pyridin-3-yl)-pyrimidine-4,6-diamine]
0.1 to 1 µM	< 0.1 µM	–	–	NC(=O)CNC(=O)c1cc(NCc2ccc(F)cc2F)nc(-c2cncc(C(F)(F)F)c2)n1 [Compound 72, 6-(2,4-Difluoro-benzylamino)-2-(5-trifluoromethyl-pyridin-3-yl)-pyrimidine-4-carboxylic acid carbamoylmethyl-amide]
–	–	> 10 µM	0.1 to 1 µM	Nc1ncccc1-c1nccc(NCc2ccccc2C(F)(F)F)n1 [Compound 77, 2-(2-Aminopyridin-3-yl)-N-[2-(trifluoromethyl)benzyl]pyrimidin-4-amine]
–	–	> 10 µM	0.1 to 1 µM	FC(F)(F)c1ccccc1CNc1ccnc(-c2cccnc2)n1 [Compound 89, 2-Pyridin-3-yl-N-[2-(trifluoromethyl)benzyl]pyrimidin-4-amine]
–	–	> 10 µM	0.1 to 1 µM	Nc1ncccc1-c1nccc(NCc2ccc(F)cc2F)n1 [Compound 98, 2-(2-Aminopyridin-3-yl)-N-(2,4-difluorobenzyl)pyrimidin-4-amine]
–	–	> 10 µM	0.1 to 1 µM	Fc1cncc(-c2nccc(NCc3ccccc3C(F)(F)F)n2)c1 [Compound 107, 2-(5-Fluoropyridin-3-yl)-N-[2-(trifluoromethyl)benzyl]pyrimidin-4-amine]
–	–	1 to 10 µM	< 0.1 µM	FC(F)(F)c1ccccc1CNc1ccnc(-c2cncc(Cl)c2)n1 [Compound 108, 2-(5-Chloropyridin-3-yl)-N-[2-(trifluoromethyl)benzyl]pyrimidin-4-amine]
–	–	1 to 10 µM	< 0.1 µM	Nc1ncccc1-c1nccc(NCc2ccc(F)cc2C(F)(F)F)n1 [Compound 110, 2-(2-Aminopyridin-3-yl)-N-[4-fluoro-2-(trifluoromethyl)benzyl]pyrimidin-4-amine]
–	–	1 to 10 µM	< 0.1 µM	FC(F)(F)c1cncc(-c2nccc(NCc3ccccc3C(F)(F)F)n2)c1 [Compound 112, N-[2-(Trifluoromethyl)benzyl]-2-[5-(trifluoromethyl)pyridin-3-yl]pyrimidin-4-amine]
–	–	0.1 to 1 µM	< 0.1 µM	Fc1ccc(CNc2ccnc(-c3cncc(Cl)c3)n2)c(F)c1 [Compound 114, 2-(5-Chloropyridin-3-yl)-N-(2,4-difluorobenzyl)pyrimidin-4-amine]
–	–	> 10 µM	0.1 to 1 µM	CC(Nc1ccnc(-c2cccnc2N)n1)c1ccccc1C(F)(F)F (stereo not drawn) [Compound 115, 2-(2-Aminopyridin-3-yl)-N-{1-[2-(trifluoro-methyl)phenyl]ethyl}pyrimidin-4-amine]
–	–	1 to 10 µM	< 0.1 µM	FC(F)(F)c1cc(Cl)ccc1CNc1ccnc(-c2cncc(Cl)c2)n1 [Compound 118, 2-(5-Chloropyridin-3-yl)-N-[4-chloro-2-(trifluoromethyl)benzyl]pyrimidin-4-amine]
